“And” between values parts separate entries of the source, which are not always exact repeats. Equal values may be shown once. The source made the active and inactive calls. The rule behind the calls is not given here.
How the values were obtained:
[1] = target: T1, Glucocorticoid receptor (Homo sapiens) (UniProt P04150); details: Huh-7
T1 sequence (whole entry): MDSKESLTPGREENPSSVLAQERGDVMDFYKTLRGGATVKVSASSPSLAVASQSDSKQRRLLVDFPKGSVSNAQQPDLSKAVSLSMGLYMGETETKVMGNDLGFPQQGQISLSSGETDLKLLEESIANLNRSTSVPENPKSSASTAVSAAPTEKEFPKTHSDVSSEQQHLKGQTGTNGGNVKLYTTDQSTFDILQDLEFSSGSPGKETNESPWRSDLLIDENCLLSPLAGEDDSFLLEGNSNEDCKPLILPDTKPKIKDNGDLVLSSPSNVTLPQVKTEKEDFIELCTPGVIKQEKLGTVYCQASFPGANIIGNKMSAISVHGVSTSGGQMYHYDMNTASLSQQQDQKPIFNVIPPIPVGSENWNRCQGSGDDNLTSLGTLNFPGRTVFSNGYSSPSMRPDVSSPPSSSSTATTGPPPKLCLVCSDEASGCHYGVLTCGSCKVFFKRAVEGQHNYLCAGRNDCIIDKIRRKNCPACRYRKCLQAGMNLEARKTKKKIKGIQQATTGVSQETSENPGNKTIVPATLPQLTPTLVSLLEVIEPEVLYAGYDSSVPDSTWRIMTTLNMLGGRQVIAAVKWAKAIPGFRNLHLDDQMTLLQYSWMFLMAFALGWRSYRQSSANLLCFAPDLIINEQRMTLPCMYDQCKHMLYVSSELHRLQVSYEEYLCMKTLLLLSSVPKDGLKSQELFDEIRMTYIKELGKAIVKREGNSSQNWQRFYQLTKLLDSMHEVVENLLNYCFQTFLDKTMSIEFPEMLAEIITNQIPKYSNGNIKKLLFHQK

Glucocorticoid receptor [2] = target: T2, Glucocorticoid receptor (Homo sapiens, UniProt P04150)
T2 sequence (P04150 whole entry): T1 sequence (whole entry)

Progesterone receptor = target: T3, Progesterone receptor (Homo sapiens, UniProt P06401); assay: Inhibition of human progesterone receptor
T3 sequence (P06401 whole entry): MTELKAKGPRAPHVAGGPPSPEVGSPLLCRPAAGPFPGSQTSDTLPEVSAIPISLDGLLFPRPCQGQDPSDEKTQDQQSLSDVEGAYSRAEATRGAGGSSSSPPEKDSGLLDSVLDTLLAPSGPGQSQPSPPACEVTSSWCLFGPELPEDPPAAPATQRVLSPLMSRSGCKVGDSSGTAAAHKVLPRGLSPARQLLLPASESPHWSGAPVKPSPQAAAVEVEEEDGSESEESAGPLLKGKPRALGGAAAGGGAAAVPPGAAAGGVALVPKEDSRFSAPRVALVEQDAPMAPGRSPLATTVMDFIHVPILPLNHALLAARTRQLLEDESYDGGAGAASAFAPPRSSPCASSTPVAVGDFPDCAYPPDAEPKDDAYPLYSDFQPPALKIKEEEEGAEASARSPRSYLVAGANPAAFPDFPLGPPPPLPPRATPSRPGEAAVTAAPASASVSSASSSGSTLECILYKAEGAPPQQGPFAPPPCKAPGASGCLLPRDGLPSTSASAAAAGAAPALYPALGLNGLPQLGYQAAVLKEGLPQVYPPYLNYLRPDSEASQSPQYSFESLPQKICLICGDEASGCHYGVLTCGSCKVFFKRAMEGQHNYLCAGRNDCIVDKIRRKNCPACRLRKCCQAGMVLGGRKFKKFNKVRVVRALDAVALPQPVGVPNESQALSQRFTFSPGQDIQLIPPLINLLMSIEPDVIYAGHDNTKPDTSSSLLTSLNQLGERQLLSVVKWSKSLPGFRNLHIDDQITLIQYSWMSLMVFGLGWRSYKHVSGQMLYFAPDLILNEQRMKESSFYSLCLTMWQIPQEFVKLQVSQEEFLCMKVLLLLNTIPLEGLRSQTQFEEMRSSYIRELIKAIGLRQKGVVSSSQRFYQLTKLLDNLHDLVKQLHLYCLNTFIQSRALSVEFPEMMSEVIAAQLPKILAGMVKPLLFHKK

Glucocorticoid receptor [3] = target: T2, Glucocorticoid receptor; assay: Antagonistic activity against 5 nM Dexamethasone induced glucocorticoid receptor mediated alkaline phosphatase activity; type: functional
[4] = Liver levels in ob/ob mice after 14 days of oral dose at 100 mpk b.i.d.; type: ADME, tissue-based; details: mouse, in vivo, 100 mg/kg, 336 h
[5] = Aspartate aminotransferase (AST) levels in ob/ob mice after 13 days of oral dose at 100 mpk b.i.d.; type: ADME; details: mouse, in vivo, 100 mg/kg, 312 h
[6] = Insulin levels in ob/ob mice after 14 days of oral dose at 100 mpk b.i.d.; type: ADME; details: mouse, in vivo, 100 mg/kg, 336 h
Rattus norvegicus [7] = assay: Reduction of progesterone levels in pregnant rats after q.d. oral dosing at 3 mpk; type: functional
Rattus norvegicus [8] = assay: Reduction of uterine weight in pregnant rats after q.d. oral dosing at 3 mpk; type: functional
[9] = Half life period of the compound in rat hepatocytes was determined; type: ADME, cell-based, Liver, Hepatocyte
[10] = Cholesterol levels in ob/ob mice after 14 days of oral dose at 100 mpk b.i.d.; type: ADME; details: mouse, in vivo, 100 mg/kg, 336 h
[11] = Glycogen levels in ob/ob mice after 14 days of oral dose at 100 mpk b.i.d.; type: ADME; details: mouse, in vivo, 100 mg/kg, 336 h
Mus musculus [12] = organism: Mus musculus; assay: Initial weight of the ob/ob mice before oral treatment at 100 mpk b.i.d. for 14 days; type: functional
[13] = Glucose levels in ob/ob mice after 14 days of oral dose at 100 mpk b.i.d.; type: ADME; details: mouse, in vivo, 100 mg/kg, 336 h
Mus musculus [14] = organism: Mus musculus; assay: Final weight of the ob/ob mice after 13 days of oral treatment at 100 mpk b.i.d.; type: functional
[15] = Insulin levels in ob/ob mice after 13 days of oral dose at 100 mpk b.i.d.; type: ADME; details: mouse, in vivo, 100 mg/kg, 312 h
[16] = Half life period of the compound in rat liver microsomes was determined; type: ADME, Microsome
[17] = Glucose levels in ob/ob mice after 13 days of oral dose at 100 mpk b.i.d.; type: ADME; details: mouse, in vivo, 100 mg/kg, 312 h
[18] = Alanine aminotransferase (ALT) levels in ob/ob mice after 13 days of oral dose at 100 mpk b.i.d.; type: ADME; details: mouse, in vivo, 100 mg/kg, 312 h
Mus musculus [19] = organism: Mus musculus; assay: Initial weight of the ob/ob mice before oral treatment at 100 mpk b.i.d. for 13 days; type: functional
[20] = Free fatty acid (FFA) levels in ob/ob mice after 14 days of oral dose at 100 mpk b.i.d.; type: ADME; details: mouse, in vivo, 100 mg/kg, 336 h
[21] = Free fatty acid (FFA) levels in ob/ob mice after 13 days of oral dose at 100 mpk b.i.d.; type: ADME; details: mouse, in vivo, 100 mg/kg, 312 h

Cc1c(NS(C)(=O)=O)cccc1N(Cc1ccc(Oc2ccc(Br)c(OCC(=O)O)c2)cc1)Cc1ccc(F)cc1F
Agonistic activity [1]: inactive | IC50 (Glucocorticoid receptor [2]): 1.8 nM | IC50 (Progesterone receptor): 140 nM | IC50 (Glucocorticoid receptor [3]): 330 nM

CC#C[C@]1(O)CC[C@H]2[C@@H]3CCC4=CC(=O)CCC4=C3[C@@H](c3ccc(N(C)C)cc3)C[C@@]21C [MIFEPRISTONE]
Level [4]: 1.8 nmol of pHB/min/mg of protein | Level [5]: 310 units/mL | Level [6]: 14 ng/mL | Reduction (Rattus norvegicus [7]): 50% | Reduction (Rattus norvegicus [8]): 50% | half-life [9]: < 6 min | Level [10]: 366 mg/dL | Level [11]: 30.5 mg/gof liver | Weight (Mus musculus [12]): 41.7 g | Level [13]: 170 mg/dL | Weight (Mus musculus [14]): 48.2 g and 51.2 g | Level [15]: 7.5 ng/mL | half-life [16]: < 19.8 min | Level [17]: 141 mg/dL | Level [18]: 1110 units/mL | Weight (Mus musculus [19]): 46.1 g | Level [20]: 0.84 mequiv/L | Level [21]: 1.5 mequiv/L
